# Target: T1, human recombinant heparanase (h-hpa) (Homo sapiens, UniProt Q9Y251)
# T1 sequence (Q9Y251 158-543 limits assumed): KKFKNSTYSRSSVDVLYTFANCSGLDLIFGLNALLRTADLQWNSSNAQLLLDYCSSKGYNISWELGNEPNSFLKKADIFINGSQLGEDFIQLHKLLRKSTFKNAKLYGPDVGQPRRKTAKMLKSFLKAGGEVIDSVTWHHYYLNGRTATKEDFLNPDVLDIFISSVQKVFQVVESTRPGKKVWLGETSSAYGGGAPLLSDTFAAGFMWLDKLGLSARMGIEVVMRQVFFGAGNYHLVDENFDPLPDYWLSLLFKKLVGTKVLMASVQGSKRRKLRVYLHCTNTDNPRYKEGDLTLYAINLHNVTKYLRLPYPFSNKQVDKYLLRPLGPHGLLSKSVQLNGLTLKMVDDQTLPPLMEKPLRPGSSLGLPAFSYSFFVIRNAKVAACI
# T1 sequence (Q9Y251 36-109 limits assumed): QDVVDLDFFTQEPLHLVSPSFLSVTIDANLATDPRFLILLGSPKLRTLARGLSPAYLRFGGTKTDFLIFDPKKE
# Assay: In vitro dimethylmethylene blue (DMB) assay for heparanase activity
# Method: (a) In Vitro Dimethylmethylene Blue (DMB) Assay for Heparanase Activity
# Heparin Sepharose CL-6B beads were added up to the top of the wells of a multiscreen column loader (Millipore). A 96-well multiscreen plate containing 0.65 μm hydrophilic, low protein binding, Durapore membrane (Millipore) was placed, upside down, on top of the multiscreen column loader. The column loader and the multiscreen plate were held together, turned over, and the beads were uniformly transferred from the column loader to the multiscreen plate (Millipore, MADVM 650). Double-distilled water (DDW) was then added to the beads, which were allowed to swell for one minute, and then washed (three times) with DDW under vacuum. Heparin concentration was estimated to be 10 μM/well.
# To each well, phosphate-buffered saline (PBS) containing 1% bovine serum albumin (BSA; 70 μl/well) and DMB (32 mg of DMB were dissolved in 5 ml ethanol, diluted to 1 liter with formate buffer containing 4 g sodium formate and 4 ml formic acid; 120 μl/well) were added. Color was developed after 5 minutes, and the absorbance of the samples was determined using a microplate reader (Spectra Max, Molecular Devices) at 530 nm with 570 nm as reference. The absorbance correlated to heparanase activity. As a control, heparanase was added to the heparin Sepharose swollen beads in the multiscreen plate and the heparanase reaction products were filtered immediately thereafter and the absorbance of these control samples was subtracted from all other samples.
# The cell extracts were centrifuged and resuspended in 20 mM phosphate citrate buffer, pH 5.4 containing 50 mM NaCl. The cells were lysed by three cycles of freezing and thawing. The cell lysates were centrifuged (10000×g for 5 min), supernatants were collected and then assayed for heparanase activity using the DMB assay.
# The partially purified human recombinant heparanase or the crude cell extracts expressing either human or mouse recombinant heparanase were added for a 3-hour incubation and the reaction continued as described above. Absorbance of the developing color was measured as described above.
row,IC50,SMILES
1,0.27 µM,CCCCCCCCCCCCCCCCCC1=NN(c2ccc(Oc3ccccc3)c(S(=O)(=O)O)c2)C(=O)C1/N=N/c1ccc(S(=O)(=O)O)cc1 (stereo not shown) [Compound 25]
2,0.19 µM,CCCCCCCCCCCCCCCCCC(=O)NC1=NN(c2ccc(Oc3ccccc3)c(S(=O)(=O)O)c2)C(=O)C1/N=N/c1ccc(O)c(C(=O)O)c1 (stereo not shown) [Compound 20]
3,0.22 µM,CCCCCCCCCCCCCCCCCC1=NN(c2ccc(Oc3ccccc3)c(S(=O)(=O)O)c2)C(=O)C1/N=N/c1ccccc1N(C)C (stereo not shown) [Compound 5]
4,1.5 µM,CCCCCCCCCCCCCCCCCCN1/C(=C/C=C/c2sc3ccccc3[n+]2CCCCCCCCCCCCCCCCCC)Sc2ccccc21 [Compound 67]
5,9 µM,CCCCCCCCCCCCCCCC(=O)OC[C@H](O)C1OC(=O)C(O)=C1O (stereo partly shown) [Compound 78]
6,0.49 µM,CCCCCCCCCCCCCCCCCCN(C)c1ccc(S(=O)(=O)O)cc1NC(=O)c1cc(S(=O)(=O)O)c2ccccc2c1O [Compound 41]
7,0.3 µM,"CCCCCCCCCCCCCCCCCCNC(=O)C1CC(=O)N(c2ccc(Oc3ccc(C(N)=O)cc3)c(S(=O)(=O)O)c2)C1 (stereo not shown) [Compound 106, 2-(4-amido-phenoxy)-5-(4-octadecyl-carbamoyl-2-oxo-pyrrolidin-1-yl)-benzene sulfonic acid]"
8,6.8 µM,CCCCCCCCCCNCC(O)Cn1c2ccc(Cl)cc2c2cc(Cl)ccc21 (stereo not shown) [Compound 68]
9,0.31 µM,CCCCCCCCCCCCCCCCCC1=NN(c2ccc(Oc3ccccc3)c(S(=O)(=O)O)c2)C(=O)C1/N=N/c1ccc(O)c(C(=O)O)c1 (stereo not shown) [Compound 21]
10,4.8 µM,CCCCCCCCCCCCCCCCn1c(=N)n(CC(O)c2ccc(OC)c(OC)c2)c2ccccc21 (stereo not shown) [Compound 65]
11,1.4 µM,CCCCCCCCCCCCCCCCCCn1c(C)nc2cc(S(=O)(=O)O)ccc21 [Compound 73]
12,0.44 µM,CCCCCCCCCCCCCCCCCC(=O)Nc1ccc(C(=O)CC(=O)Nc2cc(C(=O)O)ccc2Oc2cc(C(=O)O)cc(C(=O)O)c2)cc1 [Compound 60]
13,2 µM,CCCCCCCCCCCCCCCCCC(=O)Nc1cc(C(=O)O)ccc1Oc1cc(C(=O)O)cc(C(=O)O)c1 [Compound 61]
14,16.8 µM,CCCCCCCCCCCCCCCCCCNc1ccc(C(=O)O)cc1NC(=O)c1cc(/N=N/c2ccc(NS(=O)(=O)c3ccc(C)cc3)cc2C)c2ccccc2c1O [Compound 63]
15,3 µM,CCCCCCCCCCCCCCCCOc1ccc(/C(=N\NS(=O)(=O)c2cc(C(=O)O)cc(C(=O)O)c2)N2CCCCC2)cc1OC [Compound 76]
16,1 µM,CCCCCCCCCCCC1OC1CCCCC(=O)Nc1cc(C(=O)O)ccc1Oc1cc(C(N)=O)cc(C(=O)O)c1 (stereo not shown) [Compound 95]
17,0.4 µM,CCCCCCCCCCCCCCCCCCOc1ccc(C(=O)CC(=O)Nc2ccc(Oc3cccc(C(=O)O)c3)c(C(=O)O)c2)cc1 [Compound 23]
18,1.45 µM,CCCCCCCCCCCCCCCCCC1=NN(c2nc3ccc(S(=O)(=O)O)cc3[nH]2)C(=O)/C1=N\c1ccc(N(CC)CC)cc1 [Compound 38]
19,11.6 µM,CCCCCCCCCCCCCCCCCCN(C)c1ccc(C(=O)O)cc1NC(=O)c1cc(/N=N/c2cc(C(=O)OC)ccc2O)c2ccccc2c1O [Compound 62]
20,0.27 µM,CCCCCCCCCCCC1OC1CCCCC(=O)NC1=NN(c2ccc(Oc3ccccc3)c(S(=O)(=O)O)c2)C(=O)C1 (stereo not shown) [Compound 100]
21,1 µM,CCCCCCCCCCCCCCCCCCN1/C(=C/C=C/c2oc3ccccc3[n+]2CCCCCCCCCCCCCCCCCC)Oc2ccccc21 [Compound 66]

row,IC50,SMILES
1,0.33 µM,"CCCCCCCCCCCCCCCCCCNC(=O)C1CC(=O)N(c2ccc(Oc3ccc(C(=O)O)cc3)c(S(=O)(=O)O)c2)C1 (stereo not shown) [Compound 107, 2-(4-carboxy-phenoxy)-5-(4-octadecyl-carbamoyl-2-oxo-pyrrolidin-1-yl)-benzene sulfonic acid]"
2,0.21 µM,CCCCCCCCCCCCCCCCCCOc1ccc(C(=O)CC(=O)Nc2ccc(Sc3ccccc3C(=O)O)c(C(=O)O)c2)cc1 [Compound 44]
3,0.5 µM,CCCCCCCCCCCCCCCCCCN(C)c1ccc(S(=O)(=O)O)cc1NC(=O)c1cc(/N=N/c2ccc(NS(=O)(=O)c3ccc(C)cc3)cc2)c2ccccc2c1O [Compound 45]
4,0.43 µM,CCCCCCCCCCCCCCCCCCN(C)c1ccc(S(=O)(=O)O)cc1NC(=O)c1cc(/N=N/c2cc(OC)c(O)cc2Cl)c2ccccc2c1O [Compound 55]
5,0.73 µM,CCCCCCCCCCCCCCC(=O)NC1=NN(c2ccc(Oc3ccccc3)c(S(=O)(=O)O)c2)C(=O)C1 [Compound 84]
6,18 µM,C=CCCCCCCCCC(=O)CCCCCC(=O)Nc1cc(C(=O)O)ccc1Oc1cc(C(=O)O)cc(C(=O)O)c1 [Compound 94]
7,2.7 µM,CCCCCCCCCCCCCCCCCCOc1ccc(S(=O)(=O)O)cc1NC(=O)c1cc(/N=N/c2ccccc2C(=O)O)c2ccccc2c1O [Compound 49]
8,18 µM,O=C(O)CCCCCCCCCCN1C(=O)/C(=C/c2cccc(Br)c2)SC1=S [Compound 81]
9,19 µM,CCCCCCCCCCCCCCCC(=O)NC(CN1CCOCC1)C(O)c1ccccc1 (stereo not shown) [Compound 74]
10,0.18 µM,CCCCCCCCCCCCCCCCCC1=NN(c2ccc(Oc3ccccc3)c(S(=O)(=O)O)c2)C(=O)C1/N=N/c1cccc(C(=O)O)c1 (stereo not shown) [Compound 11]
11,15 µM,CCCCCCCCCCCCCCCCCCNCC(O)Cn1c2ccc(Br)cc2c2cc(Br)ccc21 (stereo not shown) [Compound 91]
12,5.5 µM,CCCCCCCCCCCCCCCCS(=O)(=O)c1ccc(S(=O)(=O)O)cc1C(=O)O [Compound 89]
13,0.23 µM,CCCCCCCCCCCCCCCCCC(=O)Nc1ccc(NC(=O)c2cc(/N=N/c3cc(C(=O)O)c(O)cc3O)c3ccccc3c2O)cc1S(=O)(=O)O [Compound 40]
14,0.74 µM,CCCCCCCCCCCCCCCCCCN(C)c1ccc(S(=O)(=O)O)cc1NC(=O)c1cc(/N=N/c2cc(NS(=O)(=O)c3ccc(C)cc3)ccc2Cl)c2ccccc2c1O [Compound 52]
15,0.31 µM,CCCCCCCCCCCCCCCCCCN(C)c1ccc(S(=O)(=O)O)cc1NC(=O)c1cc(/N=N/c2cc(-c3ccccc3)ccc2O)c2ccccc2c1O [Compound 34]
16,2.8 µM,CCCCCCCCCCCCCCCCCC1=NN(c2nc3cc(C(=O)O)cc(C(=O)O)c3s2)C(=O)C1 [Compound 39]
17,1.5 µM,CCCCCCCCCCCCCCCCCC1=NN(c2ccc(-c3nc4cc(S(=O)(=O)O)ccc4s3)cc2)C(=O)/C1=N\c1ccc(N(CC)CC)cc1 [Compound 37]
18,7.8 µM,CCCCCCCCCCCCCCCCn1c(/N=C/c2c(O)ccc3cc([N+](=O)[O-])ccc23)nc2ccccc21 [Compound 57]
19,0.4 µM,CCCCCCCCCCCCCCCCCCN(C)c1ccc(S(=O)(=O)O)cc1NC(=O)c1cc(/N=N/c2c(Cl)cccc2Cl)c2ccccc2c1O [Compound 53]
20,0.4 µM,CCCCCCCCCCCCCC(=O)NC1=NN(c2ccc(Oc3ccccc3)c(S(=O)(=O)O)c2)C(=O)C1 [Compound 83]
21,0.13 µM,CCCCCCCCCCCCCCCCCC1=NN(c2ccc(Oc3ccccc3)c(S(=O)(=O)O)c2)C(=O)C1/N=N/c1ccc(NC(C)=O)cc1 (stereo not shown) [Compound 26]

row,IC50,SMILES
1,0.48 µM,CCCCCCCCCCCCCCCCCCn1c(-c2ccc3ccccc3c2O)nc2cc(S(=O)(=O)O)ccc21 [Compound 42]
2,0.21 µM,CCCCCCCCCCCCCCCCCC1=NN(c2ccc(Oc3ccccc3)c(S(=O)(=O)O)c2)C(=O)C1/N=N/c1cc(OC)ccc1OC (stereo not shown) [Compound 8]
3,3 µM,CCCCCCCCCCCCCCCCn1c(/N=C/c2cc(Cl)cc(Br)c2O)nc2ccccc21 [Compound 58]
4,1.6 µM,CCCCCCCCCCCC1OC1CCCCC(=O)Nc1cc(C(=O)O)ccc1Oc1cc(C(N)=O)cc(C(N)=O)c1 (stereo not shown) [Compound 96]
5,7.7 µM,CCCCCCCCCCCCCCCCCCNC(=O)C1CC(=O)N(c2ccc(Oc3ccc(S(=O)(=O)O)cc3)cc2)C1 (stereo not shown) [Compound 103]
6,0.29 µM,CCCCCCCCCCCCCCCCCCOc1ccccc1C(=O)CC(=O)Nc1cc(NS(=O)(=O)c2cc(C(=O)O)cc(C(=O)O)c2)ccc1Cl [Compound 64]
7,17 µM,CCN1C(=O)/C(=C2\SC(=S)N(CCCCCCCCCCC(=O)O)C2=O)c2ccccc21 [Compound 82]
8,0.25 µM,CCCCCCCCCCCCCCCCCCN(C)c1ccc(S(=O)(=O)O)cc1NC(=O)c1cc(/N=N/c2cccc(NS(C)(=O)=O)c2)c2ccccc2c1O [Compound 47]
9,1.6 µM,CCCCCCCCCCCCCCCCCC[n+]1c2cc(N(C)C)ccc2cc2ccc(N(C)C)cc21 [Compound 79]
10,1.6 µM,CCCCCCCCCCCCCCCC1=CN(c2ccc(S(=O)(=O)O)cc2)C(=O)C1 [Compound 75]
11,1.34 µM,CCCCCCCCCCCCCCCCCC1=Nn2c(nc3cc(S(=O)(=O)O)ccc32)C1S(=O)(=O)O (stereo not shown) [Compound 35]
12,0.87 µM,CCCCCCCCCCCCCCCCCCCCC1=NN(c2ccc(S(=O)(=O)O)cc2N)C(=O)C1 [Compound 14]
13,6.8 µM,C=CCCCCCCCCCCCCCCC(CC(=O)NC1=NN(c2c(Cl)cc(Cl)cc2Cl)C(=O)C1)C(=O)O (stereo not shown) [Compound 56]
14,16 µM,CCCCCCCCCCCC1OC1CCCCC(=O)On1nnc2ccccc2c1=O (stereo not shown) [Compound 99]
15,0.32 µM,CCCCCCCCCCCCCCCCCCNC(=O)c1cc(S(=O)(=O)O)c2ccccc2c1O [Compound 72]
16,17 µM,CCCCCCCCCCCCCCCC[n+]1ccc(C=NO)cc1 [Compound 80]
17,0.2 µM,CCCCCCCCCCCCCCCCS(=O)(=O)c1ccc(N2N=C(NC(=O)c3ccccc3S(=O)(=O)O)C(/N=N\c3ccc(O)cc3Cl)C2=O)cc1 (stereo not shown) [Compound 54]
18,2.65 µM,CCCCCCCCCCCC(=O)NC1=NN(c2ccc(Oc3ccccc3)c(S(=O)(=O)O)c2)C(=O)C1 [Compound 71]
19,0.24 µM,CCCCCCCCCCCCCCCCCC1=NN(c2ccc(Oc3ccccc3)c(S(=O)(=O)O)c2)C(=O)C1/N=N/c1ccc(OC)cc1 (stereo not shown) [Compound 7]

# From patent US20070185176A1, “Heparanase inhibitors and uses thereof” (Insight Bioharmaceuticals Ltd., priority 2004, published 2007)
